Assays:
Format in all cases: cell-based
E. coli armA = experiment: microbe, parasite or virus in culture; conditions: Escherichia coli, E. coli HAV#056; Clinical, armA
Method in brief: (§1)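 Isolates other than streptococci and anaerobes, which had their own procedures, were grown overnight at 35° C on tryptic soy agar with 5% sheep blood. Suspensions were then diluted to a final inoculum of 5×10^5 CFU/mL in broth microdilution wells.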

[1] = tested on: broad panel of different clinical isolates; experiment: microbe, parasite or virus in culture
Method in brief: as §1

E. coli ATCC 25922 = experiment: MIC (broth microdilution or agar dilution, CLSI); conditions: Escherichia coli, ATCC25922; E. coli HAV#006, ATCC 25922; read-out: MIC
Method in brief: as §1

E. coli LptD = experiment: MIC (broth microdilution or agar dilution, CLSI); conditions: Escherichia coli, E. coli HAV#040; LptD; read-out: MIC
Method in brief: as §1

E. faecalis ATCC 29212 = experiment: MIC (broth microdilution or agar dilution, CLSI); conditions: Enterococcus faecalis, ATCC29212, E. faecalis HAV#005, ATCC 29212; read-out: MIC
Method in brief: as §1

[2] = tested on: E. faecalis MMX 847; cErmB; experiment: MIC (broth microdilution or agar dilution, CLSI); conditions: Enterococcus faecalis; E. faecalis HAV#036, MMX 847; mac-resistant, cErmB; read-out: MIC
Method in brief: as §1

K. oxytoca Clinical = experiment: MIC (broth microdilution or agar dilution, CLSI); conditions: Klebsiella oxytoca; K. oxytoca HAV#450; Clinical; read-out: MIC
Method in brief: as §1

K. pneumoniae ATCC 10031 = experiment: MIC (broth microdilution or agar dilution, CLSI); conditions: Klebsiella pneumoniae, ATCC10031, K. pneumoniae HAV#008, ATCC 10031; read-out: MIC
Method in brief: as §1

S. aureus ATCC 29213 = experiment: MIC (broth microdilution or agar dilution, CLSI); conditions: Staphylococcus aureus, ATCC29213, S. aureus HAV#001, ATCC 29213, MP-549; read-out: MIC
Method in brief: as §1

S. aureus ATCC 700699 = experiment: MIC (broth microdilution or agar dilution, CLSI); conditions: Staphylococcus aureus; S. aureus HAV#202, ATCC 700699 (VISA); read-out: MIC
Method in brief: as §1

[3] = tested on: S. aureus ATCC BAA-1707 (MRSA); experiment: MIC (broth microdilution or agar dilution, CLSI); conditions: Staphylococcus aureus; S. aureus HAV#016, ATCC BAA-1707; MRSA; read-out: MIC
Method in brief: as §1

S. aureus MMX 3035 cErmA = experiment: MIC (broth microdilution or agar dilution, CLSI); conditions: Staphylococcus aureus, MMX3035CERMA; S. aureus HAV#031, MMX 3035; cErmA; read-out: MIC
Method in brief: as §1

S. aureus hVISA = experiment: MIC (broth microdilution or agar dilution, CLSI); conditions: Staphylococcus aureus; S. aureus HAV#204, hVISA; read-out: MIC
Method in brief: as §1

S. pneumoniae ATCC 49619 = experiment: MIC (broth microdilution or agar dilution, CLSI); conditions: Streptococcus pneumoniae, ATCC49619
Method in brief: as §1

S. pneumoniae ATCC 6303 = experiment: MIC (broth microdilution or agar dilution, CLSI); conditions: Streptococcus pneumoniae, ATCC6303; S. pneumoniae HAV#351, ATCC 6303; read-out: MIC
Method in brief: as §1

[4] = tested on: S. pneumoniae MMX 3028 cErmB; experiment: MIC (broth microdilution or agar dilution, CLSI); conditions: Streptococcus pneumoniae, MMX3028CERMB; S. pneumoniae HAV#033; MMX 3028, cErmB; read-out: MIC
Method in brief: as §1

[5] = tested on: S. pneumoniae MMX 3031 cMefA; experiment: MIC (broth microdilution or agar dilution, CLSI); conditions: Streptococcus pneumoniae, MMX3031CMEFA, S. pneumoniae HAV#034; MMX 3031, cMefA; read-out: MIC
Method in brief: as §1

S. pyogenes ATCC 19615 = experiment: MIC (broth microdilution or agar dilution, CLSI); conditions: Streptococcus pyogenes, ATCC19615, S. pyogenes HAV#004, ATCC 19615; read-out: MIC
Method in brief: as §1

[6] = tested on: S. pyogenes MMX 946; cErmB; experiment: MIC (broth microdilution or agar dilution, CLSI); conditions: Streptococcus pyogenes; S. pyogenes HAV#035, MMX 946; cErmB, mac-resistant; read-out: MIC
Method in brief: as §1

Measured: MIC

CC[C@H]1OC(=O)[C@H](C)[C@@H](O[C@H]2C[C@@](C)(OC)[C@@H](O)[C@H](C)O2)[C@H](C)[C@@H](O[C@@H]2O[C@H](C)C[C@H](N(C)C)[C@H]2O)[C@](C)(O)C[C@@H](C)CN(C)[C@H](C)[C@@H](O)[C@]1(C)O [Azithromycin]
> 64 µg/mL: [1]; Enterococcus faecalis, VRE, E. faecalis HAV#251, Clinical VRE | [1]; Enterococcus faecium, VRE, E. faecium HAV#318, VanA | [1]; Klebsiella pneumoniae, K. pneumoniae HAV#041, Clinical, KPC | [1]; Staphylococcus aureus, MRSA, S. aureus HAV#218, Line R | [1]; Staphylococcus aureus, MRSA, S. aureus HAV#220, Line R | [1]; Staphylococcus aureus, MSSA, S. aureus HAV#219, Line R | [1]; Staphylococcus aureus, S. aureus HAV#211, Clinical | [1]; Staphylococcus aureus, VISA, S. aureus HAV#203, Clinical (VISA) | [1]; Staphylococcus epidermidis, S. epidermidis HAV# 276, cfr | [1]; Staphylococcus epidermidis, S. epidermidis HAV#277, Line R | [1]; Staphylococcus epidermidis, S. epidermidis HAV#278 Line R | [1]; Staphylococcus epidermidis, S. epidermidis HAV#279, Line R | [1]; Streptococcus pneumoniae, ATCC700673, S. pneumoniae HAV#352, ATCC 700673, MDR | [1]; Streptococcus pneumoniae, S. pneumoniae HAV#356, Clinical | [2] | S. aureus ATCC 700699 | S. aureus MMX 3035 cErmA | S. aureus hVISA | [4] | [6]
64 µg/mL: [1]; Escherichia coli, E. coli HAV#501, Clinical
8 µg/mL: [1]; Enterococcus faecium, E. faecium HAV#317, Clinical | [1]; Escherichia coli, E. coli HAV#503, Clinical | [1]; Escherichia coli, E. coli HAV#512, Clinical | [1]; Escherichia coli, E. coli HAV#513, Clinical | [1]; Escherichia coli, E. coli HAV#514, Clinical | [1]; Klebsiella pneumoniae, K. pneumoniae HAV#404, Clinical | [1]; Klebsiella pneumoniae, K. pneumoniae HAV#405, Clinical | E. faecalis ATCC 29212
32 µg/mL: [1]; Staphylococcus epidermidis, S. epidermidis HAV# 275 Clinical, cfr
0.25 µg/mL: [1]; Staphylococcus aureus, S. aureus HAV#213, Clinical | [1]; Staphylococcus aureus, S. aureus HAV#214, Clinical | [1]; Staphylococcus aureus, S. aureus HAV#215, Clinical
> 128 µg/mL: [1]; Enterococcus faecalis, E. faecalis HAV#607, Clinical | [1]; Enterococcus faecalis, E. faecalis HAV#608, Clinical | [1]; Enterococcus faecalis, E. faecalis HAV#609, Clinical | [1]; Enterococcus faecalis, E. faecalis HAV#610, Clinical | [1]; Enterococcus faecalis, VRE, E. faecalis HAV#606, Clinical | [1]; Enterococcus faecium, E. faecium HAV#324, Clinical | [1]; Enterococcus faecium, E. faecium HAV#327, Clinical | [1]; Enterococcus faecium, E. faecium HAV#328, Clinical | [1]; Enterococcus faecium, E. faecium HAV#329, Clinical | [1]; Enterococcus faecium, VRE, E. faecium HAV#320, Clinical | [1]; Staphylococcus aureus, S. aureus HAV#216, Clinical, cfr | [1]; Staphylococcus aureus, S. aureus HAV#217, cfr
2 µg/mL: [1]; Haemophilus influenzae, ATCC9007, H. influenzae HAV#376, ATCC-9007 | [1]; Staphylococcus aureus, S. aureus HAV#051, mecA, norA, spcl, ermA, aad1, aac6′-aph2″ | [1]; Staphylococcus aureus, S. aureus HAV#052, mecA, norA, fosB, blaZ | [1]; Staphylococcus aureus, S. aureus HAV#053 mecA, norA, fosB | [1]; Streptococcus pneumoniae, ATCCBAA255, S. pneumoniae HAV#354, ATCC-BAA-255 | [1]; Streptococcus pneumoniae, S. pneumoniae HAV#358, Clinical | S. pneumoniae ATCC 6303
≤ 0.03 µg/mL: E. coli LptD
> 256 µg/mL: [1]; Enterococcus faecalis, S. faecalis 5060, Line R & Vanco R | [1]; Staphylococcus aureus, S. aureus HAV#054, mecA, norA, spcl, aad1, fosB, ermA, aac6′-aph2″, blaZ | [1]; Staphylococcus haemolyticus, S. haemolyticus 5052, Line R & Methicillin R
16 µg/mL: K. oxytoca Clinical | [5]
1 µg/mL: [1]; Staphylococcus aureus, MRSA, S. aureus HAV#017, MRSA Col(Colindale, England) | [1]; Staphylococcus aureus, S. aureus HAV#212, Clinical | [1]; Streptococcus pneumoniae, ATCCBAA334, S. pneumoniae HAV#353, ATCC-BAA-334 | S. aureus ATCC 29213 | [3]
0.06 µg/mL: S. pyogenes ATCC 19615
0.125 µg/mL: S. pneumoniae ATCC 49619
4 µg/mL: E. coli armA | [1]; Enterococcus faecalis, E. faecalis HAV#602, Clincal | [1]; Enterococcus faecalis, S. faecalis 5074, Line R | [1]; Escherichia coli, E. coli HAV#511, Clinical | [1]; Escherichia coli, E. coli HAV#516, ESBL-producing | E. coli ATCC 25922 | K. pneumoniae ATCC 10031

— US20230203081A1, “LINCOSAMIDE ANTIBIOTICS AND USES THEREOF” (President and Fellows of Harvard College, priority 2020, published 2023)
